Test results as given in patent US9150577B2, “Heterocyclic compounds containing an indole core” (Boehringer Ingelheim International GmbH, priority 2009, dated 2015).

Each compound was assayed against Human RSK2 (Homo sapiens (Human), UniProt P51812) (assay: Human RSK2 assay (Kinase Glo Plus, residual ATP);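 also: recombinant human RSK2 phosphorylating a substrate peptide, 90 min at 28 °C, leftover ATP read by luminescence, RLU scaled between no-kinase background and uninhibited kinase controls, 4-parameter fit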).
Chain of Human RSK2 (P51812 whole entry): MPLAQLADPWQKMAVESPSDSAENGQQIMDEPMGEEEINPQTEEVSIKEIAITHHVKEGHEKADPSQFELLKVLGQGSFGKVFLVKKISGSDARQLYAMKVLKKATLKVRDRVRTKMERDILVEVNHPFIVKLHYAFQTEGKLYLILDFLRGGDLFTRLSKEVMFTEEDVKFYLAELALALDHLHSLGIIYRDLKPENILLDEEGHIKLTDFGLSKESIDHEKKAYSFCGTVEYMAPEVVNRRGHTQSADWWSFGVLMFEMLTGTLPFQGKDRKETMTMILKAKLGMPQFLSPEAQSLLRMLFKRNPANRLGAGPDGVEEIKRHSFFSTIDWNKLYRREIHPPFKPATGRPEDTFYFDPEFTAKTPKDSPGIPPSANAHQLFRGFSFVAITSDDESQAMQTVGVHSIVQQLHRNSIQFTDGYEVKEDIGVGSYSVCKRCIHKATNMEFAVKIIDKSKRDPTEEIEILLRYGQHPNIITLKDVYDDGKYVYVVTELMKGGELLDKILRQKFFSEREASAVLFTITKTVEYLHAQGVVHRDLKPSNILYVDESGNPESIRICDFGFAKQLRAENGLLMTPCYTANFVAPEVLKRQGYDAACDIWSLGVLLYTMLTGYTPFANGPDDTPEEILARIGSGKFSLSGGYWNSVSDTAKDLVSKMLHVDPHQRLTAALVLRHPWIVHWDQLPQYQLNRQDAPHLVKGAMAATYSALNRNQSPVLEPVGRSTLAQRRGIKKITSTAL
Assay type: biochemical

Row | Structure (SMILES) | IC50 [nM]
1 | O=C(Nc1cnn(Cc2ccccc2)c1)c1ccc2cc3n(c2c1)CC1(CCC1)CNC3=O [Example 138, N-(1-benzyl-1H-pyrazol-4-yl)-1′-oxo-2′,3′-dihydro-1′H-spiro[cyclobutane-1,4′-[1,4]diazepino[1,2-a]indole]-8′-carboxamide] | 26.5
2 | C[C@@H]1NC(=O)c2cc3ccc(C(=O)Nc4cnn(Cc5ccccc5)c4)cc3n2[C@H]1C (relative stereo) [Example 30, N-(1-benzyl-1H-pyrazol-4-yl)-trans-3,4-dimethyl-1-oxo-1,2,3,4-tetrahydropyrazino[1,2-a]indole-7-carboxamide] | 10
3 | CN(C)CCCn1cc(NC(=O)c2ccc3cc4n(c3c2)CCCNC4=O)cn1 [Example 36, N-{1-[3-(dimethylamino)propyl]-1H-pyrazol-4-yl}-1-oxo-2,3,4,5-tetrahydro-1H-[1,4]diazepino[1,2-a]indole-8-carboxamide] | 84
4 | O=C(Nc1nc2ccccc2n1CCc1ccccn1)c1ccc2cc3n(c2c1)CCCNC3=O [Example 89, 1-oxo-N-{1-[2-(pyridin-2-yl)ethyl]-1H-benzimidazol-2-yl}-2,3,4,5-tetrahydro-1H-[1,4]diazepino[1,2-a]indole-8-carboxamide] | 22
5 | Cc1ccc(-c2cc(NC(=O)c3ccc4cc5n(c4c3)CCCNC5=O)on2)cc1 [Example 199, N-[3-(4-methylphenyl)-1,2-oxazol-5-yl]-1-oxo-2,3,4,5-tetrahydro-1H-[1,4]diazepino[1,2-a]indole-8-carboxamide] | 115
6 | O=C(Nc1ccncc1)c1ccc2cc3n(c2c1)CCCNC3=O [Example 156, 1-oxo-N-(pyridin-4-yl)-2,3,4,5-tetrahydro-1H-[1,4]diazepino[1,2-a]indole-8-carboxamide] | 39
7 | C[C@H]1CNC(=O)c2cc3ccc(C(=O)Nc4cccnc4)cc3n2[C@H]1C (relative stereo) [Example 150, Cis-4,5-dimethyl-1-oxo-N-(pyridin-3-yl)-2,3,4,5-tetrahydro-1H-[1,4]diazepino[1,2-a]indole-8-carboxamide] | 240
8 | O=C(Nc1ccn(Cc2ccc(F)cc2)n1)c1ccc2cc3n(c2c1)CCCNC3=O [Example 12, N-[1-(4-fluorobenzyl)-1H-pyrazol-3-yl]-1-oxo-2,3,4,5-tetrahydro-1H-[1,4]diazepino[1,2-a]indole-8-carboxamide] | 220
9 | CN(C)c1cccc(Cn2cc(NC(=O)c3ccc4cc5n(c4c3)CCCNC5=O)cn2)c1 [Example 120, N-{1-[3-(dimethylamino)benzyl]-1H-pyrazol-4-yl}-1-oxo-2,3,4,5-tetrahydro-1H-[1,4]diazepino[1,2-a]indole-8-carboxamide] | 3.8
10 | CS(=O)(=O)c1ccc2c(c1)nc(NC(=O)c1ccc3cc4n(c3c1)CC1(CCNCC1)CNC4=O)n2CC(F)(F)F [Example 239, N-[5-(methylsulfonyl)-1-(2,2,2-trifluoroethyl)-1H-benzimidazol-2-yl]-1-oxo-2,3-dihydro-1H-spiro[1,4-diazepino[1,2-a]indole-4,4′-piperidine]-8-carboxamide] | 51
11 | CN(C)CCCn1c(NC(=O)c2ccc3cc4n(c3c2)CC2(CCNCC2)CNC4=O)nc2ccccc21 [Example 236, N-{1-[3-(dimethylamino)propyl]-1H-benzimidazol-2-yl}-1-oxo-2,3-dihydro-1H-spiro[1,4-diazepino[1,2-a]indole-4,4′-piperidine]-8-carboxamide] | 540
12 | CC(C)(O)Cn1c(NC(=O)c2ccc3cc4n(c3c2)CCCNC4=O)nc2ccccc21 [Example 85, N-[1-(2-hydroxy-2-methylpropyl)-1H-benzimidazol-2-yl]-1-oxo-2,3,4,5-tetrahydro-1H-[1,4]diazepino[1,2-a]indole-8-carboxamide] | 5.4
13 | O=C(Nc1cnn(CCc2ccccc2)c1)c1ccc2cc3n(c2c1)CCCNC3=O [Example 113, 1-oxo-N-[1-(2-phenylethyl)-1H-pyrazol-4-yl]-2,3,4,5-tetrahydro-1H-[1,4]diazepino[1,2-a]indole-8-carboxamide] | 17
14 | CC(C)(C)c1nnc(NC(=O)c2ccc3cc4n(c3c2)CCCNC4=O)s1 [Example 110, N-(5-tert-butyl-1,3,4-thiadiazol-2-yl)-1-oxo-2,3,4,5-tetrahydro-1H-[1,4]diazepino[1,2-a]indole-8-carboxamide] | 96
15 | CNC(=O)c1ccccc1NC(=O)c1ccc2cc3n(c2c1)CCCNC3=O [Example 229, N-[2-(methylcarbamoyl)phenyl]-1-oxo-2,3,4,5-tetrahydro-1H-[1,4]diazepino[1,2-a]indole-8-carboxamide] | 154
16 | CCn1c(NC(=O)c2ccc3cc4n(c3c2)[C@@H](C)[C@H](C)NC4=O)nc2ccccc21 (relative stereo) [Example 80, N-(1-ethyl-1H-benzimidazol-2-yl)-trans-3,4-dimethyl-1-oxo-1,2,3,4-tetrahydropyrazino[1,2-a]indole-7-carboxamide] | 5
17 | CCCc1cc(NC(=O)c2ccc3cc4n(c3c2)CCCNC4=O)on1 [Example 202, 1-oxo-N-(3-propyl-1,2-oxazol-5-yl)-2,3,4,5-tetrahydro-1H-[1,4]diazepino[1,2-a]indole-8-carboxamide] | 16

Row | Structure (SMILES) | IC50 [nM]
18 | CC1CCNC(=O)c2cc3ccc(C(=O)Nc4cc(C(C)(C)C)on4)cc3n21 (stereo not shown) [Example 160, N-(5-tert-butyl-1,2-oxazol-3-yl)-5-methyl-1-oxo-2,3,4,5-tetrahydro-1H-[1,4]diazepino[1,2-a]indole-8-carboxamide] | 32
19 | C[C@H]1NC(=O)c2cc3ccc(C(=O)Nc4nc5ccccc5n4CCCN(C)C)cc3n2[C@H]1C (relative stereo) [Example 90, N-{1-[3-(dimethylamino)propyl]-1H-benzimidazol-2-yl}-cis-3,4-dimethyl-1-oxo-1,2,3,4-tetrahydropyrazino[1,2-a]indole-7-carboxamide] | 2.1
20 | Cn1c(NC(=O)c2ccc3cc4n(c3c2)CCCNC4=O)nc2ccc(Cl)cc21 [Example 52, N-(6-chloro-1-methyl-1H-benzimidazol-2-yl)-1-oxo-2,3,4,5-tetrahydro-1H-[1,4]diazepino[1,2-a]indole-8-carboxamide] | 170
21 | Cn1c(NC(=O)c2ccc3cc4n(c3c2)C(C)(C)CNC4=O)nc2ccccc21 [Example 59, 4,4-dimethyl-N-(1-methyl-1H-benzimidazol-2-yl)-1-oxo-1,2,3,4-tetrahydropyrazino[1,2-a]indole-7-carboxamide] | 0.62
22 | C[C@@H]1CNC(=O)c2cc3ccc(C(=O)Nc4cccnc4)cc3n2[C@H]1C (relative stereo) [Example 151, Trans-4,5-dimethyl-1-oxo-N-(pyridin-3-yl)-2,3,4,5-tetrahydro-1H-[1,4]diazepino[1,2-a]indole-8-carboxamide] | 1100
23 | CC1CNC(=O)c2cc3ccc(C(=O)Nc4cnn(C)c4)cc3n21 (stereo not shown) [Example 22, 4-methyl-N-(1-methyl-1H-pyrazol-4-yl)-1-oxo-1,2,3,4-tetrahydropyrazino[1,2-a]indole-7-carboxamide] | 5.1
24 | Cc1cc(NC(=O)c2ccc3cc4n(c3c2)[C@@H](C)[C@H](C)NC4=O)no1 (relative stereo) [Example 168, Trans-3,4-dimethyl-N-(5-methyl-1,2-oxazol-3-yl)-1-oxo-1,2,3,4-tetrahydropyrazino[1,2-a]indole-7-carboxamide] | 160
25 | CC(C)n1ncc2cc(NC(=O)c3ccc4cc5n(c4c3)[C@@H](C)[C@@H](C)NC5=O)cnc21 (relative stereo) [Example 18, cis-3,4-dimethyl-1-oxo-N-[1-(propan-2-yl)-1H-pyrazolo[3,4-b]pyridin-5-yl]-1,2,3,4-tetrahydropyrazino[1,2-a]indole-7-carboxamide] | 8.1
26 | N#Cc1cccc(NC(=O)c2ccc3cc4n(c3c2)CCCNC4=O)c1 [Example 6, N-(3-cyanophenyl)-1-oxo-2,3,4,5-tetrahydro-1H-[1,4]diazepino[1,2-a]indole-8-carboxamide] | 140
27 | CN(C)CCCn1c(NC(=O)c2ccc3cc4n(c3c2)CC2(CC2)CNC4=O)nc2ccccc21 [Example 124, N-{1-[3-(dimethylamino)propyl]-1H-benzimidazol-2-yl}-1′-oxo-2′,3′-dihydro-1′H-spiro[cyclopropane-1,4′-[1,4]diazepino[1,2-a]indole]-8′-carboxamide] | 9.25
28 | CN1CCC(n2c(NC(=O)c3ccc4cc5n(c4c3)CCCNC5=O)nc3ccccc32)CC1 [Example 77, N-[1-(1-methylpiperidin-4-yl)-1H-benzimidazol-2-yl]-1-oxo-2,3,4,5-tetrahydro-1H-[1,4]diazepino[1,2-a]indole-8-carboxamide] | 14
29 | CC1CCNC(=O)c2cc3ccc(C(=O)Nc4nc5ccccc5[nH]4)cc3n21 (stereo not shown) [Example 58, N-(1H-benzimidazol-2-yl)-5-methyl-1-oxo-2,3,4,5-tetrahydro-1H-[1,4]diazepino[1,2-a]indole-8-carboxamide] | 0.77
30 | O=C(Nc1cccnc1)c1ccc2cc3n(c2c1)CC1(CCC1)CNC3=O [Example 153, 1′-oxo-N-(pyridin-3-yl)-2′,3′-dihydro-1′H-spiro[cyclobutane-1,4′-[1,4]diazepino[1,2-a]indole]-8′-carboxamide] | 3300
31 | O=C(Nc1ccccn1)c1ccc2cc3n(c2c1)CCCNC3=O [Example 154, 1-oxo-N-(pyridin-2-yl)-2,3,4,5-tetrahydro-1H-[1,4]diazepino[1,2-a]indole-8-carboxamide] | 220
32 | N#Cc1ccc(NC(=O)c2ccc3cc4n(c3c2)CCCNC4=O)cc1 [Example 185, N-(4-cyanophenyl)-1-oxo-2,3,4,5-tetrahydro-1H-[1,4]diazepino[1,2-a]indole-8-carboxamide] | 106
33 | CC(C)(C)c1cc(NC(=O)c2ccc3cc4n(c3c2)CCCNC4=O)no1 [Example 175, N-(5-tert-butyl-1,2-oxazol-3-yl)-1-oxo-2,3,4,5-tetrahydro-1H-[1,4]diazepino[1,2-a]indole-8-carboxamide] | 150
34 | O=C(Nc1cc(-c2ccc(F)cc2)on1)c1ccc2cc3n(c2c1)CCCNC3=O [Example 184, N-[5-(4-fluorophenyl)-1,2-oxazol-3-yl]-1-oxo-2,3,4,5-tetrahydro-1H-[1,4]diazepino[1,2-a]indole-8-carboxamide] | 155
